# Reference: article PMC7238120, “Strong and Selective Inhibitory Effects of the Biflavonoid Selamariscina A against CYP2C8 and CYP2C9 Enzyme Activities in Human Liver Microsomes” (Pharmaceutics, 2020)
# Read-outs that look alike come from different tables or passages of the source.
# Tests used:
# [1] = molecular target: T1, CYP2C8 (Homo sapiens, UniProt P10632); assay: Inhibition of CYP2C8-catalyzed rosiglitazone 5-hydroxylation in human liver microsomes; format: in vitro ADME; set-up: incubation mixtures containing pooled human liver microsomes (HLMs, XTreme 200, XenoTech); tissue XenoTech XTreme 200; host or cells: pooled human liver microsomes
# T1 sequence (P10632 1-490): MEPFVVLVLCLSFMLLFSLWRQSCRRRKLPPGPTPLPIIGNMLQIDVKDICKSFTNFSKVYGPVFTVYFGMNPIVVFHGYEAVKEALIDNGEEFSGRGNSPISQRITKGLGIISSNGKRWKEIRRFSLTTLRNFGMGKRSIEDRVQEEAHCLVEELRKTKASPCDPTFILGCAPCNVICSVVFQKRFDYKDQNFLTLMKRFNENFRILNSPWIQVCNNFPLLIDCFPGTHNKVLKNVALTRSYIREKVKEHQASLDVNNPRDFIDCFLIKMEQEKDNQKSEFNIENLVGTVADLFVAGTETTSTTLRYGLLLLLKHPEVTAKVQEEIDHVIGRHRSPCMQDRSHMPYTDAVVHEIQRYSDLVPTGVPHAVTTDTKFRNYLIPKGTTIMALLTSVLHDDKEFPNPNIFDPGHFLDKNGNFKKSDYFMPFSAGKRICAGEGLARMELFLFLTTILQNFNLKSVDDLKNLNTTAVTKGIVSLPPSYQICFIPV
# Description: (§1) We used HLMs to determine the mechanisms and constants (Ki values) for […] A inhibition of CYP1A2, CYP2B6, CYP2C8, CYP2C9 and CYP3A. […] The substrates were used at concentrations approximately near to their respective Km values. […] The other conditions were the same as in the cytochrome P450 inhibition study. […] Phenomenex, Torrance, CA, USA) and analyzed using a Shimadzu LCMS 8060 triple-quadrupole mass spectrometer coupled with a Nexera X2 ultra high-performance liquid chromatography system (Shimadzu, Kyoto, Japan) equipped with an electrospray ionization interface. The mobile phase consisted of 0.1% formic acid in water (A) and 0.1% formic acid in acetonitrile (B). […] The flow rate was 0.2 mL/min. Electrospray ionization was performed in positive-ion mode at 4000 V or in negative-ion mode at -3500 V. The optimum operating conditions were determined as follows: vaporizer temperature, 300 °C; capillary temperature, 350 °C; collision gas (argon) pressure, 1.5 mTorr. Quantitation was conducted in selected reaction monitoring (SRM) modes with the precursor-to-product ion transition for each metabolite (Table 1 and Table 2). We analyzed the data with Shimadzu LabSolution LC-MS software. The IC50 values were calculated by WinNonlin software (Pharsight, Mountain View, CA, USA). […]
# [2] = molecular target: CYP2C9 (Homo sapiens, UniProt P11712); assay: Inhibition of CYP2C9-catalyzed tolbutamide 4-hydroxylation in human liver microsomes; format: in vitro ADME; set-up: incubation mixtures containing pooled human liver microsomes (HLMs, XTreme 200, XenoTech); tissue XenoTech XTreme 200; host or cells: pooled human liver microsomes; conditions: HLMs
# Chain of CYP2C9 (P11712 whole entry): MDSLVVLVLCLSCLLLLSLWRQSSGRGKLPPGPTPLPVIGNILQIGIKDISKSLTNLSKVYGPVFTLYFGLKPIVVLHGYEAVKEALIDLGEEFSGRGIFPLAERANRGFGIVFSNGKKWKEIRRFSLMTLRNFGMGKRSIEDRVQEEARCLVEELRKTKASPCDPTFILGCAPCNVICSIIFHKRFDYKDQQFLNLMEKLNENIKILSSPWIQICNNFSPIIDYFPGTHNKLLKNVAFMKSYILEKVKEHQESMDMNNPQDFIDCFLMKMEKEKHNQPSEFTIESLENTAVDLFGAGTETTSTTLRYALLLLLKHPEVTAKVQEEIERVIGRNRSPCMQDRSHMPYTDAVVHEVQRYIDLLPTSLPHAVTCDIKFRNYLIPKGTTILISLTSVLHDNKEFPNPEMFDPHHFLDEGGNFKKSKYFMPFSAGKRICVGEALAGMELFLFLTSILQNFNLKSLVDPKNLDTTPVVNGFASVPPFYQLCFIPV
# Description: as §1
# [3] = molecular target: T2, UGT1A1 (Homo sapiens, UniProt P22309); set-up: method as in PMID 29470958; conditions: read-out: IC50, UGT1A1, previously reported value; cited from earlier work
# T2 sequence (P22309 26-533): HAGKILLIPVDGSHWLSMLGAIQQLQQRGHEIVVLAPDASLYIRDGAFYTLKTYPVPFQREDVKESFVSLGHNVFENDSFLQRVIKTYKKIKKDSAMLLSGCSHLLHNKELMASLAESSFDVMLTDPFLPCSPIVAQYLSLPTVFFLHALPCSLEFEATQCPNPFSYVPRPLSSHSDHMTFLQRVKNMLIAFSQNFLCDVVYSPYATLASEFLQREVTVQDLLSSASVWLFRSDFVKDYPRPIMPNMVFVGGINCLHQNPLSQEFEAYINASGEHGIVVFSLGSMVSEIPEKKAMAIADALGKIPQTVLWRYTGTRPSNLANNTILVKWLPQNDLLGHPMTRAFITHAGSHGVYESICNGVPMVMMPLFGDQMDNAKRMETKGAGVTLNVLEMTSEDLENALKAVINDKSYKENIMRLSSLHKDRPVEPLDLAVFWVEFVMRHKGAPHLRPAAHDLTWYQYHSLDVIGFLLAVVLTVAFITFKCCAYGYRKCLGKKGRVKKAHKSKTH
# [4] = cited from earlier work
Compound,"Ki ([1]; HLMs, average ± standard error, triplicate) [nM]","Mode of Inhibition, CYP2C8 rosiglitazone ([1]; microsomes)","Mode of Inhibition, CYP2C9 tolbutamide [2]","Ki ([2]; average ± standard error, triplicate) [nM]",IC50 [3] [nM],"Cmax ([4]; liposome-based Selaginella doderleinii Hieron extracts 200 mg/kg, read-out: Cmax after liposome-based extract) [nM]","Cmax, times higher than control ([4]; liposome-based extracts 200 mg/kg versus control) [times]",Maximum concentration in rat blood ([4]; single oral dose of Selaginella doderleinii Hieron extracts 200 mg/kg) [µM],Maximum concentration in rat blood ([4]; single oral dose of Selaginella doderleinii Hieron extracts 600 mg/kg) [µM]
O=C1CC(c2cc(-c3c(O)ccc4c(=O)cc(-c5ccc(O)cc5)oc34)c(O)cc2O)Oc2cc(O)cc(O)c21 (stereo not drawn) [selamariscina A],10 ± 3,"Noncompetitive, partial",Noncompetitive,65 ± 10,,,,,
O=c1cc(-c2ccc(O)c(-c3c(O)cc(O)c4c(=O)cc(-c5ccc(O)cc5)oc34)c2)oc2cc(O)cc(O)c12 [amentoflavone],,,,,780,220,5.4,0.041,0.063
